Laboratory results reported in paper PMC2231820 (The Journal of General Physiology, 2000).
Positions count from the first letter of the chain named. Where two headings read alike, the source gives them in different places.

Legend:
Type in all cases: cell-based
[1] = biological target: T1, mouse olfactory (Molf) CNG channel, α homomultimer (Mus musculus, UniProt Q62398, M2V)
T1 sequence (Q62398 1-664 M2V): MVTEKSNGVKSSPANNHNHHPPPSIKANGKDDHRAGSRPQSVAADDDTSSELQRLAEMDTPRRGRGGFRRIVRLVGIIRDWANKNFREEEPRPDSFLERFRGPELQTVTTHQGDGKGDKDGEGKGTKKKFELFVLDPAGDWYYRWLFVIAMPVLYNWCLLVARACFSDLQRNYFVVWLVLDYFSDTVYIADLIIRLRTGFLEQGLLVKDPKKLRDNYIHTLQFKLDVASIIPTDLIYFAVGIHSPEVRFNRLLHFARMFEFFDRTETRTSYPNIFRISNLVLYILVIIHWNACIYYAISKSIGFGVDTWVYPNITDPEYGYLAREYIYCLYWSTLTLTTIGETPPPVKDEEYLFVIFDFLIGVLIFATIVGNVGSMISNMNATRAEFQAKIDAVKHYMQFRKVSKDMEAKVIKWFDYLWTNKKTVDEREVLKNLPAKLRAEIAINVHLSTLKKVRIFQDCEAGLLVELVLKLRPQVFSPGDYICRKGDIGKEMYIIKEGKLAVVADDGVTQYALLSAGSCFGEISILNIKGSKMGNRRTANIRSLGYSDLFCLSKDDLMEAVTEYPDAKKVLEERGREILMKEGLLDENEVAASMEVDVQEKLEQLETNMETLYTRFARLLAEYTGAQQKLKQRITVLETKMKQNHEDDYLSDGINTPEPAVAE

[2] = biological target: T2, Rolf G204W CNG channel (Rattus norvegicus, UniProt Q00195, G204W)
T2 sequence (Q00195 1-664 G204W): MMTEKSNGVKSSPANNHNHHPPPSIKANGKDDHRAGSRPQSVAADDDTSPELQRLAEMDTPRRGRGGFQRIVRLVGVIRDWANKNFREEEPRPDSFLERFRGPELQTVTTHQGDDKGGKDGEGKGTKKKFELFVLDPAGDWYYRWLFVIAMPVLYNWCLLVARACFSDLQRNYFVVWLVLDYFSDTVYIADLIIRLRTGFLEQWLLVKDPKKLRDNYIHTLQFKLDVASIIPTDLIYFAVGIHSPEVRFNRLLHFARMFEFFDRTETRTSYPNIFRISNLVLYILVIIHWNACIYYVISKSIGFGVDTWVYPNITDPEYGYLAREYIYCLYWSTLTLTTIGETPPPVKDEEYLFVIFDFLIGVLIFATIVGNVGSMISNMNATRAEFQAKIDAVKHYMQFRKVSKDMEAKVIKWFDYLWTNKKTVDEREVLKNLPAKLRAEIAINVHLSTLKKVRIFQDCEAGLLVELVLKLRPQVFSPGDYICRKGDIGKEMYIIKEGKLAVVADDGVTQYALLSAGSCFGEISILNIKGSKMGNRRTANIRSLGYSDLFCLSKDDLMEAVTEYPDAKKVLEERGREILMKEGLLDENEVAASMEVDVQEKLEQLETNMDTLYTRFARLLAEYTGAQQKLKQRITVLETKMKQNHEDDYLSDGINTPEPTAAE

[3] = biological target: T3, Molf G204E CNG channel (Mus musculus, UniProt Q62398, G204E/M2V)
T3 sequence (Q62398 1-664 M2V/G204E): T1 sequence (Q62398 1-664 M2V) with G204E

[4] = biological target: T4, rat olfactory (Rolf) CNG channel, α homomultimer (Rattus norvegicus, UniProt Q00195); conditions: for Hill coefficient n of cGMP activation: six patches
T4 sequence (Q00195 1-664): T2 sequence (Q00195 1-664 G204W) with W204G

[5] = read-out: Percent inhibition by tetracaine

## CCCCNc1ccc(C(=O)OCCN(C)C)cc1 [Tetracaine, tetracaine]
[1]; [5]
  inhibition at 40 µM: 18.8%
[2]
  IC50: 2.2 µM
[2]; [5]
  inhibition at 40 µM: 100%
[3]
  IC50: 10.8 µM
[3]; [5]
  inhibition at 40 µM: 78.3%
[4]
  IC50: 140 µM
[4]; [5]
  inhibition at 40 µM: 10.4%

## Nc1nc2c(ncn2[C@@H]2O[C@@H]3COP(=O)(O)O[C@H]3[C@H]2O)c(=O)[nH]1 [cGMP]
[1]; Molf, 1 μM cGMP, +100 mV
  I/Imax of cGMP-activated current: 0.15
[2]; Rolf G204W, averaged six patches, +100 mV
  Hill coefficient n of cGMP activation: 1.7
[2]; Rolf G204W, averaged six patches, −100 mV
  Hill coefficient n of cGMP activation: 1.7
[2]; Rolf G204W, single patch, +100 mV
  Hill coefficient n of cGMP activation: 2.0
[2]; Rolf G204W, single patch, −100 mV
  Hill coefficient n of cGMP activation: 2.0
[2]; read-out: cGMP K1/2 (half-maximal activation), Rolf G204W, +100 mV, averaged data from six patches
  EC50: 14 µM
[2]; read-out: cGMP K1/2, Rolf G204W, single patch, +100 mV
  EC50: 14 µM
[2]; read-out: cGMP K1/2, Rolf G204W, single patch, −100 mV
  EC50: 18 µM
[3]; Molf G204E, 1 μM cGMP, +100 mV
  I/Imax of cGMP-activated current: 0.15
[4]; Rolf, +100 mV
  Hill coefficient n of cGMP activation: 2.8
[4]; Rolf, −100 mV
  Hill coefficient n of cGMP activation: 2.8

## diacylglycerol [DAG]
[1]; Molf, 12 μM DAG, saturating cGMP
  inhibition of cGMP-activated current by DAG (in words): only partial inhibition
[1]; Molf, saturating 100 μM cGMP
  DAG maximal percent inhibition (INmax): 17%
  Hill coefficient n of DAG inhibition: 0.8
[2]; Rolf G204W, 2 mM cGMP
  DAG maximal percent inhibition (INmax): 100%
  Hill coefficient n of DAG inhibition: 3.2
[3]; Molf G204E, 1.5 μM DAG, saturating 100 μM cGMP
  decrease of maximal current by DAG: > 80%
[3]; Molf G204E, saturating 100 μM cGMP
  DAG maximal percent inhibition (INmax): 100%
[3]; Molf G204E, saturating cGMP
  DAG concentration that fully suppresses cGMP-activated currents: ~3 µM
[4]; Rolf, 1.5 μM DAG, saturating 100 μM cGMP
  decrease of maximal current by DAG: 14%
[4]; Rolf, 12 μM DAG, saturating cGMP
  inhibition of cGMP-activated current by DAG (in words): only partial inhibition
